Legend:
SKM9-2 [1] = experiment: Western blotting using SKM9-2 of HEG1 truncated mutants and epitope-fused GPI-anchor proteins; format: binding; settings: cell lysates of transfected HEK293T, SDS-PAGE under reducing conditions, 1 µg/mL SKM9-2
From the text: Figure 1 SKM9-2 binding to truncated mutants of HEG1. Schematics of full-length HEG1 (Full) and the truncated mutants are indicated on the left side and the results of western blotting using SKM9-2 are shown on the right side. Truncated amino acid position, which is based on a full-length variant of HEG1 containing exon 6, is shown as a number in the schematic of domain structure. The region of the SKM9-2 epitope is shown as a red square. […] SLURP GPI-anchor protein[18] was used as a fused GPI-anchor protein (violet square). The terminal sequences of the HEG1 peptide are shown in the western blot lane. The samples were resolved by 6% SDS-PAGE (a and b) or 4–15% SDS-PAGE (c) under reducing conditions and were detected by western blotting using SKM9-2. Cyt, cytoplasmic domain; EGFs, EGF related domains; Ser/Thr, serine/threonine rich region; SLURP, secreted lymphocyte antigen-6/urokinase-type plasminogen activator receptor-related peptide; SP, signal peptide; TM, transmembrane domain. Full-length blots are presented in Supplementary Fig. S7.
Figure 2 Epitope mapping of SKM9-2. Schematic of epitope peptides (left side) and western blots resolved by 4–15% SDS-PAGE (right side) are shown. The HEG1 peptide sequences are indicated in the western blot lane. Each epitope peptide was fused with a signal peptide (dashed line square) and a SLURP GPI-anchor protein (violet square). Full-length blots are presented in Supplementary Fig. S8.
Figure 3 Alanine scanning of SKM9-2 epitope. […] Cell lysates of transfected HEK293T (upper panel) or transfected ACC-MESO1 (lower panel) were resolved by 4–15% SDS-PAGE and analyzed by western blotting using SKM9-2. (b) S897A mutant of FLAG-tagged HEG1 in HEK293T was resolved by 4–15% SDS-PAGE and analyzed by western blotting using SKM9-2 (upper panel) or anti-FLAG mAb (lower panel). Native HEG1 in ACC-MESO4 and FLAG-tagged HEG1 without mutation in HEK293T were used as controls. Full-length blots are presented in Supplementary Fig. S9.
Sequences of tested HEG1 are shown in Supplementary Dataset. Full-length HEG1 cDNA was synthesized from total RNA purified with TRIzol reagent (Thermo Fisher Scientific) from ACC-MESO-4, using an oligo dT primer and SuperScript II RNase H reverse transcriptase (Thermo Fisher Scientific). cDNA encoding the HEG1 open reading frame was amplified by PCR using PrimeSTAR HS DNA Polymerase (Takara Bio Inc., Shiga, Japan). The HEG1 cDNA was cloned and inserted into the pcDNA3.1(−) mammalian expression vector (Thermo Fisher Scientific). For analyses of N-terminal truncation, we inserted mutants into pFLAG-CMV1 (Sigma-Aldrich Japan K.K., Tokyo, Japan). For analyses of C-terminal deletion lacking the transmembrane domain, we used mutants that were fused with a GPI-anchor protein, SLURP1-gpi[18], in pcDNA3.1(+) (Thermo Fisher Scientific) (Supplementary Dataset). Alanine substituted mutants were prepared using site directed mutagenesis. To produce a soluble epitope peptide, a modified HEG1 signal peptide and a C-terminal tag containing the FLAG tag plus a polyhistidine sequence were used in the mammalian expression vector pEF-BOS[39] (Supplementary Dataset). The plasmid constructs were transfected with Lipofectamine 3000 (Thermo Fisher Scientific). The HEG1 peptide-expressing 293 H clone was obtained by selection with geneticin (Thermo Fisher Scientific).
Monolayer cells were solubilized with 20 mM Tris buffer (pH 8.0) containing 1% SDS, 1 mM phenylmethylsulfonyl fluoride, 125 mU/mL Benzonase Nuclease (Merck Millipore Co., Tokyo, Japan) (25 µL/cm^2 culture surface area). The lysate (10 µL/lane) was resolved by SDS-PAGE under reducing conditions using 6% polyacrylamide gels or 4–15% precast gels (Bio-Rad Laboratories Inc., Hercules, CA, USA). […]

SKM9-2 [2] = experiment: SPR analysis of binding between SKM9-2 and soluble His-tagged minimum epitope peptides (SKMepmin); settings: for Kd: His-tagged SKMepmin secreted from transfected HEK293T immobilized on Ni2+-binding sensor chip NTA, analyte 5 µg/mL SKM9-2, running buffer 10 mM HEPES pH 8.1, 150 mM NaCl, 0.005% Tween-20, 50 µM EDTA, read-out: KD (M), dissociation constant; for association rate between SKM9-2 and epitope peptide (in words) / dissociation rate between SKM9-2 and epitope peptide (in words): analyte 5 µg/mL SKM9-2, change caused by the substitution; for affinity of SKM9-2 in contrast to SKMepmin3 (in words): analyte 5 µg/mL SKM9-2, ligand on sensor chip NTA
Description: Figure 5 SPR analysis of the binding kinetics between SKM9-2 and mutants of minimum epitope. A soluble His-tagged mutant of minimum epitope (SKMepmin) was secreted from transfected HEK293T and immobilized as a ligand on the Ni^2+-binding sensor chip NTA. The upper sensorgrams show the binding kinetics of analyte (5 µg/mL of SKM9-2) to SKMepmins. The control without any peptide is shown as “No peptide” and the negative control peptide cycle is shown as “Control peptide”. The glycan-digested SKMepmin3 that was treated with Neuraminidase A and O-Glycosidase was used as the negative control peptide. The dissociation constant in the lower bar graph was calculated using the manufacturer’s instructions. RU, response units; Signal sequence, the artificial signal sequence (MAPLLLLLLPLLLLPPAAP).
Figure 7 SPR analysis of bindings of lectin and SKM9-2 to glycosidase-treated SKMepmin3. Purified SKMepmin3 was incubated with α2-3 Neuraminidase S, Neuraminidase A, or Neuraminidase A + O-Glycosidase; and then was immobilized as a ligand on Ni^2+-binding sensor chip NTA. The analytes were used at a concentration of 5 µg/mL. (a) ABA, (b) Jacalin, (c) rACG, (d) SKM9-2. Glycosidase-digested sample was not tested in the experiment with rACG.
Cell lysate or SKMepmin3 was treated with α2-3 Neuraminidase S, α2-3, 6, 8, 9 Neuraminidase A, and O-Glycosidase (New England Biolabs Japan, Tokyo, Japan) in 50 mM sodium phosphate (pH 7.5) containing 1% Nonidet P-40, according to the manufacturer’s instructions. The cell lysate sample was resolved by 4–15% or 6% SDS-PAGE under reducing conditions and detected by western blotting using SKM9-2. The analysis of the SKMepmin3 sample was performed by SPR.
The binding of SKM9-2 or lectin to SKMepmin was measured by SPR analysis. SKMepmin was diluted with a running buffer (10 mM HEPES buffer (pH 8.1) containing 150 mM NaCl and 0.005% Tween-20), flowed on Ni^2+-binding sensor chip NTA (GE Healthcare), and affinity-bound through His-tag as a ligand on the sensor chip. Binding analysis of SKM9-2 was performed in a running buffer containing 50 µM EDTA. A non-treated flow cell was used as a reference cell. SKM9-2, anti-sialyl Lewis^X (CSLEX1, Becton, Dickinson and Company Japan, Tokyo, Japan), rACG (Wako Pure Chemical Industries), biotinylated ABA (J-Oil Mills, Inc., Tokyo, Japan), or biotinylated Jacalin (Vector Laboratories, Inc., Burlingame, CA, USA) (each 5 µg/mL) was injected as an analyte with the running buffer. As a regeneration buffer, 350 mM EDTA was used. The dissociation constant was calculated using the manufacturer’s instructions.

7.62: 887-EKVITESKSPSLVSLPTEST-906 -SLURP GPI
recognition by SKM9-2 upon western blot analysis (SKM9-2 [1]): clearly detected

7.626: 887-EKVITESKSPSLVSLP-902 -SLURP GPI
recognition by SKM9-2 upon western blot analysis (SKM9-2 [1]): weakly recognized

7.627: 887-EKVITESKSPSLVS-900 -SLURP GPI
recognition by SKM9-2 upon western blot analysis (SKM9-2 [1]): not bound

MAPLLLLLLPLLLLPPAAPGGAKAPSLVSLPAGGDYKDDDDKHHHHHHHH [SKMepmin4]
Kd (SKM9-2 [2]): 1.15e-08 M | association rate between SKM9-2 and epitope peptide (in words) (SKM9-2 [2]): decreased | affinity of SKM9-2 in contrast to SKMepmin3 (in words) (SKM9-2 [2]): decreased

MAPLLLLLLPLLLLPPAAPGGSKAPALVSLPAGGDYKDDDDKHHHHHHHH [SKMepmin6]
Kd (SKM9-2 [2]): 4.2e-08 M | dissociation rate between SKM9-2 and epitope peptide (in words) (SKM9-2 [2]): increased | affinity of SKM9-2 in contrast to SKMepmin3 (in words) (SKM9-2 [2]): decreased

MAPLLLLLLPLLLLPPAAPGGSKAPSLVALPAGGDYKDDDDKHHHHHHHH [SKMepmin8]
Kd (SKM9-2 [2]): 3.25e-08 M | dissociation rate between SKM9-2 and epitope peptide (in words) (SKM9-2 [2]): increased | affinity of SKM9-2 in contrast to SKMepmin3 (in words) (SKM9-2 [2]): decreased

MAPLLLLLLPLLLLPPAAPGGSKAPSLVSLPTGGDYKDDDDKHHHHHHHH [SKMepmin2]
Kd (SKM9-2 [2]): 6.22e-09 M | association rate between SKM9-2 and epitope peptide (in words) (SKM9-2 [2]): increased

MAPLLLLLLPLLLLPPAAPGGSKAPSLVTLPAGGDYKDDDDKHHHHHHHH [SKMepmin9]
Kd (SKM9-2 [2]): 6.38e-09 M | dissociation rate between SKM9-2 and epitope peptide (in words) (SKM9-2 [2]): increased | affinity of SKM9-2 in contrast to SKMepmin3 (in words) (SKM9-2 [2]): restored

MAPLLLLLLPLLLLPPAAPGGSKAPTLVSLPAGGDYKDDDDKHHHHHHHH [SKMepmin7]
Kd (SKM9-2 [2]): 6.17e-08 M | affinity of SKM9-2 in contrast to SKMepmin3 (in words) (SKM9-2 [2]): further reduced

MAPLLLLLLPLLLLPPAAPGGSKSPSLVSLPTGGDYKDDDDKHHHHHHHH [SKMepmin1]
Kd (SKM9-2 [2]): 8.75e-09 M

MAPLLLLLLPLLLLPPAAPGGTKAPSLVSLPAGGDYKDDDDKHHHHHHHH [SKMepmin5]
Kd (SKM9-2 [2]): 2.9e-09 M | association rate between SKM9-2 and epitope peptide (in words) (SKM9-2 [2]): hardly influenced | dissociation rate between SKM9-2 and epitope peptide (in words) (SKM9-2 [2]): hardly influenced | affinity of SKM9-2 in contrast to SKMepmin3 (in words) (SKM9-2 [2]): restored

B1: 3 kb: FLAG-tagged N-terminal deletion mutant hHEG1 (285-1481) (protein)
chain: MSALLILALVGAAVADYKDDDDKLAAANSSIDLSWLHFYRTAASSPLLDLSSSSESTEKLNNSTGLQSSSVSQTKTMHVATVFTDGGPRTLRSLTVSLGPVSKTEGFPKDSRIATTSSSVLLSPSAVESRRNSRVTGNPGDEEFIEPSTENEFGLTSLRWQNDSPTFGEHQLASSSEVQNGSPMSQTETVSRSVAPMRGGEITAHWLLTNSTTSADVTGSSASYPEGVNASVLTQFSDSTVQSGGSHTALGDRSYSESSSTSSSESLNSSAPRGERSIAGISYGQVRGTAIEQRTSSDHTDHTYLSSTFTKGERALLSITDNSSSSDIVESSTSYIKISNSSHSEYSSFFHAQTERSNISSYDGEYAQPSTESPVLHTSNLPSYTPTINMPNTSVVLDTDAEFVSDSSSSSSSSSSSSSSSSSSSSGPPLPLPSVSQSHHLFSSILPSTRASVHLLKSTSDASTPWSSSPSPLPVSLTTSTSAPLSVSQTTLPQSSSTPV
recognition by SKM9-2 upon western blot analysis (SKM9-2 [1]): recognized

B2: 2.2 kb: FLAG-tagged N-terminal deletion mutant hHEG1 (712-1481) (protein)
chain: MSALLILALVGAAVADYKDDDDKLAAANSSIDLSSYDGEYAQPSTESPVLHTSNLPSYTPTINMPNTSVVLDTDAEFVSDSSSSSSSSSSSSSSSSSSSSGPPLPLPSVSQSHHLFSSILPSTRASVHLLKSTSDASTPWSSSPSPLPVSLTTSTSAPLSVSQTTLPQSSSTPVLPRARETPVTSFQTSTMTSFMTMLHSSQTADLKSQSTPHQEKVITESKSPSLVSLPTESTKAVTTNSPLPPSLTESSTEQTLPATSTNLAQMSPTFTTTILKTSQPLMTTPGTLSSTASLVTGPIAVQTTAGKQLSLTHPEILVPQISTEGGISTERNRVIVDATSGLIPLTSVPTSAKEMTTKLGVTAEYSPASRSLGTSPSPQTTVVSTAEDLAPKSATFAVQSSTQSPTTLSSSASVNSCAVNPCLHNGECVADNTSRGYHCRCPPSWQGDDCSVDVNECLSNPCPSTAMCNNTQGSFICKCPVGYQLEKGICNLVRTFVTEF
recognition by SKM9-2 upon western blot analysis (SKM9-2 [1]): recognized

B3: 2 kb: FLAG-tagged N-terminal deletion mutant hHEG1 (771-1481) (protein)
chain: MSALLILALVGAAVADYKDDDDKLAAANSSIDLSSGPPLPLPSVSQSHHLFSSILPSTRASVHLLKSTSDASTPWSSSPSPLPVSLTTSTSAPLSVSQTTLPQSSSTPVLPRARETPVTSFQTSTMTSFMTMLHSSQTADLKSQSTPHQEKVITESKSPSLVSLPTESTKAVTTNSPLPPSLTESSTEQTLPATSTNLAQMSPTFTTTILKTSQPLMTTPGTLSSTASLVTGPIAVQTTAGKQLSLTHPEILVPQISTEGGISTERNRVIVDATSGLIPLTSVPTSAKEMTTKLGVTAEYSPASRSLGTSPSPQTTVVSTAEDLAPKSATFAVQSSTQSPTTLSSSASVNSCAVNPCLHNGECVADNTSRGYHCRCPPSWQGDDCSVDVNECLSNPCPSTAMCNNTQGSFICKCPVGYQLEKGICNLVRTFVTEFKLKRTFLNTTVEKHSDLQEVENEITKTLNMCFSALPSYIRSTVHASRESNAVVISLQTTFSLASN
recognition by SKM9-2 upon western blot analysis (SKM9-2 [1]): recognized

Reference: publication PMC6155162, “Identification of mesothelioma-specific sialylated epitope recognized with monoclonal antibody SKM9-2 in a mucin-like membrane protein HEG1” (Scientific Reports, 2018)
